ChEMBL document CHEMBL3774340, “Structure-Guided Design of IACS-9571, a Selective High-Affinity Dual TRIM24-BRPF1 Bromodomain Inhibitor” (J Med Chem, 2016)
≈ marks a conversion by molar mass, not a printed value.

Columns and labels:
[1] = target: T1, Transcription intermediary factor 1-alpha (Homo sapiens, UniProt O15164); experiment: Inhibition of recombinant human His-tagged TRIM24-PHD/bromodomain expressed in Escherichia coli strains BL21 (DE3) cells using biotinylated H3K23ac (1 to 33 residues) peptide after 1 hr by AlphaScreen assay
T1 sequence (O15164 whole entry): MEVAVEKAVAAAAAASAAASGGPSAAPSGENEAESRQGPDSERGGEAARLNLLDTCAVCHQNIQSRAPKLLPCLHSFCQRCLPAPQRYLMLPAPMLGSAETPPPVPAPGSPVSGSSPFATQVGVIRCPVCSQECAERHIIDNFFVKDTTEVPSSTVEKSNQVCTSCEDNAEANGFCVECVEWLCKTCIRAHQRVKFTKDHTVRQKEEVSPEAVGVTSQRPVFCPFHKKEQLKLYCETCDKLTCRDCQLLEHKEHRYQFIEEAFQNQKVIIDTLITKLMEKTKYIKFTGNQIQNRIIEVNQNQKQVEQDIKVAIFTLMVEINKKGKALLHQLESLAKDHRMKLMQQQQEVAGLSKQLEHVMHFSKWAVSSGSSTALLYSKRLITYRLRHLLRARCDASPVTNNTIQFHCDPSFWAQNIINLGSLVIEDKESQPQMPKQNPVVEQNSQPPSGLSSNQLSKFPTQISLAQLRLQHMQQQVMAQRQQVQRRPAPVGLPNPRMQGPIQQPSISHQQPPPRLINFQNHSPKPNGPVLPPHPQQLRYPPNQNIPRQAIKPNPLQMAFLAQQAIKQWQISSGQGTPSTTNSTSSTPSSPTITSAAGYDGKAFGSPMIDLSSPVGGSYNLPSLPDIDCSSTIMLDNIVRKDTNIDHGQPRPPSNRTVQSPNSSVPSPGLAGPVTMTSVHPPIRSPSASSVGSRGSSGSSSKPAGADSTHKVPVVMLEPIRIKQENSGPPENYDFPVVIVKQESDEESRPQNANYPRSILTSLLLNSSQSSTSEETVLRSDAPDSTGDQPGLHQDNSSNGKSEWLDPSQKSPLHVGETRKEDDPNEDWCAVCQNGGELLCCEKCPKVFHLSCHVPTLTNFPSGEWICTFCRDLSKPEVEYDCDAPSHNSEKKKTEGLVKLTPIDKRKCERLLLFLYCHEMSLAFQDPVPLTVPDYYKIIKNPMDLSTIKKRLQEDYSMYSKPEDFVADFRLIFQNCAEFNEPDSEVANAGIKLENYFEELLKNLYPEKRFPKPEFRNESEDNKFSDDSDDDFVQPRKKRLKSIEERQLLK

[2] = target: T1, Transcription intermediary factor 1-alpha; experiment: Inhibition of Flag-tagged TRIM24-PHD/bromodomain (unknown origin) expressed in human HeLa cells for 2 hrs by AlphaLisa assay; type: cell-based
[3] = Kinetic solubility of compound in phosphate buffer at pH 7
[4] = Clearance in CD1 mouse at 1 mg/kg, iv; type: ADME, organism-based; settings: in vivo
[5] = Terminal half life in CD1 mouse at 1 mg/kg, iv; type: ADME, organism-based; settings: in vivo, read-out: beta t1/2 (converted)
[6] = Oral bioavailability in CD1 mouse at 10 mg/kg; type: ADME, organism-based; settings: in vivo
[7] = Apparent permeability from apical to basolateral side in human Caco2 cells; settings: Caco-2

Row | Compound | IC50 [1] [µM] | EC50 [2] [µM] | solubility kinetic [3] [µM] | other results
1 | COc1cc2c(cc1NS(=O)(=O)c1cccc(C#N)c1)n(C)c(=O)n2C | 10 | – | – | –
2 | COc1ccc(S(=O)(=O)Nc2ccc3c(c2)n(C)c(=O)n3C)cc1 | 9.3 | – | – | –
3 | Cn1c(=O)n(C)c2cc(NS(=O)(=O)c3ccccc3)ccc21 | 23 | – | – | –
4 | COc1ccc(Oc2cc3c(cc2NS(=O)(=O)c2ccccc2)n(C)c(=O)n3C)cc1 | 1.5 | – | – | –
5 | CN1C(=O)CCc2cc(NS(=O)(=O)c3ccc(C4CCCCC4)cc3)ccc21 | 2.8 | – | – | –
6 | CCCCOc1cccc(Oc2cc3c(cc2NS(=O)(=O)c2cn(C)c(C)n2)n(C)c(=O)n3C)c1 | 0.16 | 3 | – | –
7 | Cc1nc(S(=O)(=O)Nc2cc3c(cc2Oc2cccc(OCC(C)C)c2)n(C)c(=O)n3C)cn1C | 0.057 | – | 87 (≈ 43.5 µg/mL) | –
8 | COCCCOc1cccc(Oc2cc3c(cc2NS(=O)(=O)c2cn(C)c(C)n2)n(C)c(=O)n3C)c1 | 0.13 | 2.7 | 100 (≈ 51.6 µg/mL) | –
9 | CCCOc1cc(OCCCN)cc(Oc2cc3c(cc2NS(=O)(=O)c2ccc(OC)c(OC)c2)n(C)c(=O)n3C)c1 | 0.013 | 0.12 | – | –
10 | CCCOc1cc(OCCCCN(C)C)cc(Oc2cc3c(cc2NS(=O)(=O)c2ccc(OC)c(OC)c2)n(C)c(=O)n3C)c1 | – | – | 76 (≈ 48.9 µg/mL) | clearance [4]: 43 mL/min/kg; half-life [5]: 42 min; bioavailability [6]: 29%
11 | Cn1cnc(S(=O)(=O)Nc2cc3c(cc2Oc2ccc(OCc4ccccc4)cc2)n(C)c(=O)n3C)c1 | 2 | > 33 | – | –
12 | CCCOc1cc(OCCCCCCNC(=O)OC(C)(C)C)cc(Oc2cc3c(cc2NS(=O)(=O)c2cn(C)cn2)n(C)c(=O)n3C)c1 | 0.16 | 5.5 | – | –
13 | CSc1ccc(S(=O)(=O)Nc2ccc3c(c2)n(C)c(=O)n3C)cc1 | 4.9 | – | – | –
14 | CCOc1cccc(Oc2cc3c(cc2NS(=O)(=O)c2cn(C)c(C)n2)n(C)c(=O)n3C)c1 | 0.18 | 2.3 | 74 (≈ 34.9 µg/mL) | –
15 | CC(C)COc1ccc(S(=O)(=O)Nc2ccc3c(c2)CCC(=O)N3C)cc1 | 3.7 | – | – | –
16 | CCCOc1cc(OCCCCCCN)cc(Oc2cc3c(cc2NS(=O)(=O)c2ccc(OC)c(OC)c2)n(C)c(=O)n3C)c1 | 0.013 | 0.17 | – | –
17 | CCCOc1cc(OCCCCCCO)cc(Oc2cc3c(cc2NS(=O)(=O)c2cn(C)cn2)n(C)c(=O)n3C)c1 | 0.06 | 1.8 | – | –
18 | CC(C)COc1ccc(S(=O)(=O)Nc2ccc3c(c2)n(C)c(=O)n3C)cc1 | 4 | – | – | –
19 | COc1ccc(S(=O)(=O)Nc2cc3c(cc2Oc2cccc(OCCCCN(C)C)c2)n(C)c(=O)n3C)cc1OC | 0.27 | 3.2 | 66 (≈ 38.6 µg/mL) | –

Row | Compound | IC50 [1] [µM] | EC50 [2] [µM] | solubility kinetic [3] [µM] | other results
20 | CCCOc1cc(OCCCCN)cc(Oc2cc3c(cc2NS(=O)(=O)c2ccc(OC)c(OC)c2)n(C)c(=O)n3C)c1 | 0.0083 | 0.059 | 42 (≈ 25.8 µg/mL) | –
21 | CSc1ccc(S(=O)(=O)Nc2ccc3c(c2)CC(=O)N3C)cc1 | 17 | – | – | –
22 | CCCOc1cccc(Oc2cc3c(cc2NS(=O)(=O)c2cn(C)c(C)n2)n(C)c(=O)n3C)c1 | 0.053 | 0.95 | 62 (≈ 30.1 µg/mL) | –
23 | CC(C)COc1cccc(Oc2cc3c(cc2NS(=O)(=O)C2CC2)n(C)c(=O)n3C)c1 | 0.11 | 5 | 0.78 (≈ 0.348 µg/mL) | –
24 | CCCOc1cc(OCCCCN)cc(Oc2cc3c(cc2NS(=O)(=O)c2cn(C)cn2)n(C)c(=O)n3C)c1 | 0.0079 | 0.12 | – | –
25 | COc1ccc(S(=O)(=O)Nc2cc3c(cc2Oc2cccc(OCc4ccccc4)c2)n(C)c(=O)n3C)cc1OC | 0.14 | 3.9 | 0.6 (≈ 0.345 µg/mL) | Papp A→B [7]: 21 ×10⁻⁶ cm/s
26 | Cn1c(=O)n(C)c2cc(NS(=O)(=O)c3ccc(C4CCCCC4)cc3)ccc21 | 1.7 | – | – | –
27 | COc1cc2c(cc1NS(=O)(=O)c1ccccc1)CCC(=O)N2C | 36 | – | – | –
28 | CCCOc1cc(OCCCCCN)cc(Oc2cc3c(cc2NS(=O)(=O)c2cn(C)cn2)n(C)c(=O)n3C)c1 | 0.011 | 0.11 | – | –
29 | Cc1nc(-c2ccc3c(c2)CC(=O)N3C)cs1 | 8.5 | – | – | –
30 | COc1ccc(S(=O)(=O)Nc2ccc3c(c2)CCC(=O)N3C)c(OC)c1 | 2.5 | – | – | –
31 | CSc1ccc(S(=O)(=O)Nc2ccc3c(c2)N(C)C(=O)CC3)cc1 | 14 | – | – | –
32 | Cc1nc(S(=O)(=O)Nc2cc3c(cc2Oc2cccc(OCc4ccccc4)c2)n(C)c(=O)n3C)cn1C | 0.27 | 4.9 | – | –
33 | CC(C)COc1cccc(Oc2ccc3c(c2)n(C)c(=O)n3C)c1 | 2.4 | > 36 | 2.6 (≈ 0.849 µg/mL) | –
34 | Cn1cnc(S(=O)(=O)Nc2cc3c(cc2Oc2cccc(OCC4CCOC4)c2)n(C)c(=O)n3C)c1 (configuration not stated) | 0.1 | 1.9 | 77 (≈ 39.5 µg/mL) | –
35 | CSc1ccc(S(=O)(=O)Nc2ccc3c(c2)CCC(=O)N3C)cc1 | 4.8 | – | – | –
36 | CCCOc1cccc(Oc2cc3c(cc2NS(=O)(=O)c2ccc(OC)c(OC)c2)n(C)c(=O)n3C)c1 | 0.043 | 0.83 | 1.1 (≈ 0.58 µg/mL) | –
37 | CCCOc1cc(OCCCCCCN)cc(Oc2cc3c(cc2NS(=O)(=O)c2cn(C)cn2)n(C)c(=O)n3C)c1 | 0.01 | 0.17 | – | –
